Data taken from patent US20230067910A1, “NOVEL COMPOUNDS FOR THE DIAGNOSIS, TREATMENT AND PREVENTION OF DISEASES ASSOCIATED WITH THE AGGREGATION OF ALPHA-SYNUCLEIN” (MODAG GMBH, priority 2019, published 2023).

Legend:
[1] = biological target: T1, tau46 (fibrils) (Homo sapiens, UniProt P10636); assay: Competition binding assay, protocol 3a, reference ligand [3H]-compound 1, tau46 fibrils; conditions: Experiment B, reference ligand [3H]-compound 1 (1 nM)
T1 construct: made in house; host or cells: E. coli
T1 sequence (P10636 1-412 isoform P10636-7): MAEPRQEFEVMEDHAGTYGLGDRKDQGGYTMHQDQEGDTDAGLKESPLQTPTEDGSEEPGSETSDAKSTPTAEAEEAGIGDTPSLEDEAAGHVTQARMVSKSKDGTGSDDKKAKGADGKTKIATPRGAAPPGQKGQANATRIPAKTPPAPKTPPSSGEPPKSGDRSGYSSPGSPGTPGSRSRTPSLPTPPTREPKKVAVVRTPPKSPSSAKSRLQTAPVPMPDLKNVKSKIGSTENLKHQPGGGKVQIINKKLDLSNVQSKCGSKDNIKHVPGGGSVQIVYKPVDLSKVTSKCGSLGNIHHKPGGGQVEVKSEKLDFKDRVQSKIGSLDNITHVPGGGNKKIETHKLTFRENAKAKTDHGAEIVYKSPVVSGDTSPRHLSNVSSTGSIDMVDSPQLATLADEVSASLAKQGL
Protocol: Alpha-synuclein and tau46 were purified from E. coli according to established protocols (Nuscher B, et al., J. Biol. Chem., 2004; 279(21):21966-75), Aβ1-42 was obtained from rPeptide, Watkinsville, Ga., USA. Fibrils were prepared by aggregation of recombinant protein via constant agitation. In detail, 70 μM of alpha-synuclein mixed with 100 mM NaCl in 50 mM Tris, pH 7.0+0.02% NaN3 were incubated at 1,400 rpm, 37° C. for 96 h. 10 μM of tau46 were incubated with 0.03 mg/ml heparin in 50 mM Tris, pH=7.0 at 1,000 rpm, 37° C. for 72 h. Aβ1-42 was solved in 20 mM NaPi, pH=8.0+0.2 mM EDTA+0.02% NaN3 (Deeg A A, et al., Biochim. Biophys. Acta, 2015; 1850(9): 1884-90; Goedert M, et al. Nature, 1996; 383(6600): 550-3).
A fixed concentration of sonicated human recombinant αSYN (200 nM/well) or tau46 (208 nM/well) fibrils diluted in phosphate buffered saline (PBS) were incubated in low binding plates (96 well micro test plate, Ratiolab GmbH, Dreieich, Germany) together with 1 nM [^3H]-compound 1 and 1:4 serial dilutions of the cold compound of interest starting from 1 μM diluted in 50 mM Tris-base, 10% EtOH, 0.05% Tween20, pH 7.4. For the calculation of Ki values the KD value of compound 1 toward sonicated human recombinant αSYN fibrils was set to 3 nM.
Assay plates were incubated under agitation at 37° C. for 2 h covered by plastic foil (Resealable tape, PerkinElmer, Waltham, Mass., USA). Prior to harvesting, a filter (Printed filtermat B, PerkinElmer, Waltham, Mass., USA) was incubated with 5 mg/mL polyethylenimine (PEI, Poly(ethyleneimine) solution, Sigma Aldrich Chemie GmbH, Taufkirchen, Germany) at 4° C. for 30 min. After incubation, bound and free ligands were separated by vacuum filtration using a harvester (Filtermate harvester, PerkinElmer, Waltham, Mass., USA). The filter was washed three times with buffer cooled to 4° C. and subsequently dried in the microwave for 2 min at medium power. The filter was sealed in a plastic bag (Sample bag for MicroBeta®, PerkinElmer, Waltham, Mass., USA) together with added scintillator (BETAPLATE SCINT, PerkinElmer, Waltham, Mass., USA). Accumulation of tritium was counted in a liquid scintillation counter (Wallac MicroBeta® TriLux, 1450 LSC & Luminescence Counter, PerkinElmer, Waltham, Mass., USA) immediately. Radioactivity was plotted against the increasing tritium-labeled compound or cold compound concentrations. Data points were fitted using nonlinear regression analysis in GraphPad Prism (GraphPad Software, Inc., Version 7.03, La Jolla, Calif., USA).
The fibril competition assay provides Ki values. Ki is a quantitative measure that represents the concentration of the non-radioactive tested compound (competitor ligand) required to replace 50% of a reference compound, in this case [H]-compound 1 (1 nM) or [H]-compound 2 (1 nM), which is bound to the target structures (1 nM), in our case recombinant alpha-synuclein and tau46 fibrils. This assay is suitable for a screening of non-radioactive ligands.

[2] = biological target: T2, aggregated alpha-synuclein (Homo sapiens, UniProt P37840); assay: Autoradiography using human brain tissue (dementia with Lewy bodies); type: binding
T2 construct: made in house; host or cells: E. coli
Protocol: Autoradiography was performed on histological slices of frozen brain tissue using tritiated compound 1 and brain tissue derived from the cingulate gyrus of a patient with dementia with Lewy bodies.

Row | Ki [1] [nM] | Autoradiography binding pattern ([2]; [3H]-compound 1 at 3 nM, cingulate gyrus, patient with dementia with Lewy bodies) | Unspecific binding to brain tissue ([2]; specific binding blocked by excess of non-tritiated compound 1) | Compound
1 | 9 | – | – | CNc1ccc(-c2cc(-c3ccnc(Br)c3)[nH]n2)cc1 [Compound 2, 4-[5-(2-bromopyridin-4-yl)-1H-pyrazol-3-yl]-N-methylaniline]
2 | – | preferential binding to the gray matter | no to very low unspecific binding | CN(C)c1ccc(-c2cc(-c3ccnc(Br)c3)[nH]n2)cc1 [Compound 1, 4-[3-(4-dimethylamino-phenyl)-1H-pyrazol-5-yl]-2-bromopyridine]
